Laboratory results reported in patent publication US20240173293A1 (Sanofi, priority 2021, published 2024).
Like-named read-outs stand apart in the source and are kept apart here. Blank lines part the entries; values can stand above or below the molecule they belong to.

Tests used:
[1] = Amcenestrant PK parameters at steady state in patients; assay type: in vivo, human; settings: for AUC(0-t) / Cmax / Tmax / concentration at 0 h: human, plasma, oral; for Tmax: read-out: Tmax (median); for concentration at 0 h: read-out: Ctrough (arithmetic mean)
[2] = Published palbociclib exposure data (A5481001, A5481003, A5481008, Ibrance label); assay type: in vivo; settings: human, plasma; A5481001, A5481003, A5481008, N=57; read-out: AUC0-24 h, reference: geometric mean of individual studies weighed by number of subjects (converted)
[3] = cited from earlier work
[4] = cited from earlier work; remark: listed apart in the source
[5] = pooled analysis, 1666 patients treated with palbociclib; cited from earlier work
[6] = amcenestrant 200 mg with palbociclib, steady state Day 21, N=8
[7] = amcenestrant 400 mg monotherapy, steady state, N=13
[8] = amcenestrant 400 mg with palbociclib, steady state Day 21, N=5

Compound: O=C(O)c1ccc2c(c1)CCCC(c1ccc(Cl)cc1Cl)=C2c1ccc(O[C@H]2CCN(CCCF)C2)cc1 [Amcenestrant, 6-(2,4-dichlorophenyl)-5-[4-[(3S)-1-(3-fluoropropyl)pyrrolidin-3-yl]oxyphenyl]-8,9-dihydro-7H-benzo[7]annulene-2-carboxylic acid]
CLss/F (arithmetic mean) [1, 6]: 10.7 L/h | Ctrough [geometric mean] [1, 6]: [215] ng/mL | CLss/F (arithmetic mean) ([1]; amcenestrant 200 mg with palbociclib, steady state Day 21, N=8, listed as amcenestrant): 10.7 ± 3.38 L/h | CLss/F (arithmetic mean) [1, 7]: 10.6 L/h | Ctrough [geometric mean] [1, 7]: [466] ng/mL | CLss/F (arithmetic mean) ([1]; amcenestrant 400 mg monotherapy, steady state, N=13, listed as amcenestrant): 10.6 ± 4.35 L/h | systemic clearance higher than after amcenestrant 400 mg QD single agent ([1]; amcenestrant 400 mg with palbociclib, Day 21): 28% | CLss/F (arithmetic mean) [1, 8]: 13.5 L/h | Ctrough [geometric mean] [1, 8]: [248] ng/mL | CLss/F (arithmetic mean) ([1]; amcenestrant 400 mg with palbociclib, steady state Day 21, N=5, listed as amcenestrant): 13.5 ± 5.36 L/h | AUC(0-t) ([1]; female, 200 mg, amcenestrant 200 mg with palbociclib, steady state Day 21, N=8, read-out: AUC0-24h (arithmetic mean) (converted)): 20600 ng·h/mL | Cmax ([1]; female, 200 mg, amcenestrant 200 mg with palbociclib, steady state Day 21, N=8, read-out: Cmax (arithmetic mean)): 2060 ng/mL | Tmax ([1]; female, 200 mg): 4.88 h | AUC(0-t) ([1]; female, 400 mg, amcenestrant 400 mg with palbociclib, steady state Day 21, N=5, read-out: AUC0-24h (arithmetic mean) (converted)): 33100 ng·h/mL | AUC(0-t) ([1]; female, 400 mg, amcenestrant 400 mg with palbociclib, steady state Day 21, N=5, read-out: AUC0-24h [geometric mean]): 31400 ng·h/mL | Cmax ([1]; female, 400 mg, amcenestrant 400 mg with palbociclib, steady state Day 21, N=5, read-out: Cmax (arithmetic mean)): 4350 ng/mL | Cmax ([1]; female, 400 mg, amcenestrant 400 mg with palbociclib, steady state Day 21, N=5, read-out: Cmax [geometric mean]): 3450 ng/mL | Tmax ([1]; female, 400 mg): 4 h | concentration at 0 h ([1]; female, amcenestrant 200 mg with palbociclib, steady state Day 21, N=8): 226 ng/mL | concentration at 0 h ([1]; female, amcenestrant 400 mg with palbociclib, steady state Day 21, N=5): 280 ng/mL | AUC(0-t) ([1]; 200 mg, amcenestrant 200 mg with palbociclib, steady state Day 21, N=8, read-out: AUC0-24h [geometric mean]): 19500 ng·h/mL | Cmax ([1]; 200 mg, amcenestrant 200 mg with palbociclib, steady state Day 21, N=8, read-out: Cmax [geometric mean]): 1940 ng/mL | AUC(0-t) ([1]; 400 mg, amcenestrant 400 mg monotherapy, steady state, N=13, read-out: AUC0-24h (arithmetic mean) (converted)): 43200 ng·h/mL | AUC(0-t) ([1]; 400 mg, amcenestrant 400 mg monotherapy, steady state, N=13, read-out: AUC0-24h [geometric mean]): 40400 ng·h/mL | Cmax ([1]; 400 mg, amcenestrant 400 mg monotherapy, steady state, N=13, read-out: Cmax (arithmetic mean)): 4380 ng/mL | Cmax ([1]; 400 mg, amcenestrant 400 mg monotherapy, steady state, N=13, read-out: Cmax [geometric mean]): 4220 ng/mL | concentration at 0 h ([1]; 400 mg, amcenestrant 400 mg monotherapy, steady state, N=13): 630 ng/mL | Tmax ([1]; 400 mg): 3 h

AUC(0-t) [2]: 1970 ng·h/mL
Compound: CC(=O)c1c(C)c2cnc(Nc3ccc(N4CCNCC4)cn3)nc2n(C2CCCC2)c1=O [Palbociclib, 6-acetyl-8-cyclopentyl-5-methyl-2-{[5-(piperazin-1-yl)pyridin-2-yl]amino}pyrido[2,3-d]pyrimidin-7(8H)-one]
decrease of exposure when combined with a moderate CYP3A inducer (modafinil) ([3]; Ibrance U.S. label): 32% | Cmax, arithmetic mean (CV %) ([3]; study A5481001, palbociclib monotherapy, steady state, N=4): 97.4 (41%) ng/mL | Cmax, geometric mean (CV %) ([3]; study A5481003, palbociclib monotherapy, steady state, N=12): 116 (28%) ng/mL | Cmax, geometric mean (CV %) ([3]; study A5481008, palbociclib with letrozole, steady state, N=41): 110 (35%) ng/mL | solubility ([4]; Above pH 4): reduces significantly | solubility ([4]; At or below pH 4): high-solubility compound | neutrophil count decrease, any grade [5]: 95.2%
